According to the supplement of paper PMC10627819:

Columns and labels:
S. pneumoniae D39V [1] = test: fitness (endpoint OD595 vs no drug) (fraction); higher = more growth
Outline: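 Growth medium was TSB, LB Lennox or CY, and plates were kept at 37 °C. Inoculation was at OD595 0.01 in 384-well plates, at 30 µl per well or 55 µl for S. pneumoniae. OD595 was monitored every 30 min for 14 h and background-subtracted using the first reading. Fitness is the optical density on entering stationary phase divided by the robust mean of no-drug controls, with values capped at 1.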

B. subtilis 168 = test: Bliss interaction score (quartile over a dose matrix) (fitness difference); higher = more antagonism (negative = synergy)
Outline: (§1)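 The Bliss score takes observed fitness and subtracts the expected fitness, calculated as a product of single-drug fitness values. Those single-drug values were inferred from the combination data. Fitness is OD595 at entry into stationary phase divided by the plate's robust no-drug mean, capped at 1, and the score is summarised by quartiles across technical, biological and donor/recipient replicates.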

S. aureus DSM 20231 = test: as above
Outline: as §1

S. aureus Newman = test: as above
Outline: as §1

S. pneumoniae D39V [2] = test: as above
Outline: as §1
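Wherever Bliss interaction score (quartile over a dose matrix) is given: first quartile when negative (synergy) and third quartile when positive (antagonism).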
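Wherever fitness (endpoint OD595 vs no drug) is given: OD595 on entry to stationary phase over no-drug wells; at most 1.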

C[C@H]1COc2c(N3CCN(C)CC3)c(F)cc3c(=O)c(C(=O)O)cn1c23 [Levofloxacin] + CN[C@H](CC(C)C)C(=O)N[C@H]1C(=O)N[C@@H](CC(N)=O)C(=O)N[C@H]2C(=O)N[C@H]3C(=O)N[C@H](C(=O)N[C@H](C(=O)O)c4cc(O)cc(O)c4-c4cc3ccc4O)[C@H](O)c3ccc(c(Cl)c3)Oc3cc2cc(c3O[C@@H]2O[C@H](CO)[C@@H](O)[C@H](O)[C@H]2O[C@H]2C[C@](C)(N)[C@H](O)[C@H](C)O2)Oc2ccc(cc2Cl)[C@H]1O [Vancomycin]
fitness, S. pneumoniae D39V [1]
Settings	first compound 0.1725 µg/mL	first compound 0.2 µg/mL	first compound 0.345 µg/mL	first compound 0.4 µg/mL	first compound 0.69 µg/mL	first compound 0.8 µg/mL
partner 0.03125 µg/mL	–	0.931	–	0.834	–	0.365
partner 0.0625 µg/mL	–	0.893	–	0.812	–	0.436
partner 0.125 µg/mL	0.857	0.704	0.818	0.605	–	0.292
partner 0.25 µg/mL	–	–	–	–	0.213	–
partner 0.5 µg/mL	0.0371	–	0.0522	–	0.0787	–

Settings	Bliss interaction score
B. subtilis 168	0.0448
S. aureus DSM 20231	-0.0494
S. aureus Newman	-0.0425
S. pneumoniae D39V [2]	-0.1

CO/N=C(\C(=O)N[C@@H]1C(=O)N2C(C(=O)[O-])=C(C[N+]3(C)CCCC3)CS[C@H]12)c1csc(N)n1 [Cefepime] + O=C1CN(/N=C/c2ccc([N+](=O)[O-])o2)C(=O)N1 [Nitrofurantoin]
fitness, S. pneumoniae D39V [1]
Settings	first compound 0.007 µg/mL	first compound 0.0078 µg/mL	first compound 0.014 µg/mL	first compound 0.0155 µg/mL	first compound 0.028 µg/mL	first compound 0.031 µg/mL
partner 1.285 µg/mL	–	0.957	–	0.943	–	0.811
partner 2 µg/mL	0.988	–	0.979	–	0.912	–
partner 2.57 µg/mL	–	0.962	–	0.942	–	0.738
partner 4 µg/mL	0.991	–	0.955	–	0.887	–
partner 8 µg/mL	0.949	–	0.927	–	0.843	–

S. pneumoniae D39V [1], partner 5.14 µg/mL, one replicate
Settings	fitness
first compound 0.0078 µg/mL	0.959
first compound 0.0155 µg/mL	0.993
first compound 0.031 µg/mL	0.825

Settings	Bliss interaction score
B. subtilis 168	-0.125
S. aureus DSM 20231	0.0422
S. aureus Newman	0.0549
S. pneumoniae D39V [2]	0.188

CN(C)C(=O)C(CCN1CCC(O)(c2ccc(Cl)cc2)CC1)(c1ccccc1)c1ccccc1 [Loperamide] + O=C1CN(/N=C/c2ccc([N+](=O)[O-])o2)C(=O)N1 [Nitrofurantoin]
S. pneumoniae D39V [1]
Settings	fitness
first compound 17.14 µg/mL, partner 2 µg/mL	0.906
first compound 17.14 µg/mL, partner 4 µg/mL	0.924
first compound 17.14 µg/mL, partner 8 µg/mL	0.856
first compound 20 µg/mL, partner 1.285 µg/mL	≥ 1
first compound 20 µg/mL, partner 2.57 µg/mL	0.98
first compound 34.28 µg/mL, partner 2 µg/mL	0.904
first compound 34.28 µg/mL, partner 4 µg/mL	0.941
first compound 34.28 µg/mL, partner 8 µg/mL	0.883
first compound 40 µg/mL, partner 1.285 µg/mL	≥ 1
first compound 40 µg/mL, partner 2.57 µg/mL	0.981
first compound 80 µg/mL, partner 1.285 µg/mL	0.805
first compound 80 µg/mL, partner 2.57 µg/mL	0.821

S. pneumoniae D39V [1], one replicate
Settings	fitness
first compound 20 µg/mL, partner 5.14 µg/mL	≥ 1
first compound 40 µg/mL, partner 5.14 µg/mL	≥ 1
first compound 68.57 µg/mL, partner 2 µg/mL	0.901
first compound 68.57 µg/mL, partner 4 µg/mL	0.914
first compound 68.57 µg/mL, partner 8 µg/mL	0.851
first compound 80 µg/mL, partner 5.14 µg/mL	0.806

Settings	Bliss interaction score
B. subtilis 168	0.0384
S. aureus DSM 20231	0.0206
S. aureus Newman	0.045
S. pneumoniae D39V [2]	0.106

CC1(C)S[C@@H]2[C@H](NC(=O)[C@H](N)c3ccc(O)cc3)C(=O)N2[C@H]1C(=O)O [Amoxicillin] + CN(C)C(=O)C(CCN1CCC(O)(c2ccc(Cl)cc2)CC1)(c1ccccc1)c1ccccc1 [Loperamide]
fitness, S. pneumoniae D39V [1]
Settings	partner 17.14 µg/mL	partner 20 µg/mL	partner 34.28 µg/mL	partner 40 µg/mL	partner 80 µg/mL
first compound 0.0008 µg/mL	0.993	–	0.945	–	–
first compound 0.0015 µg/mL	0.977	≥ 1	0.935	≥ 1	≥ 1
first compound 0.003 µg/mL	0.868	0.999	0.839	0.994	0.991

fitness, S. pneumoniae D39V [1], one replicate
Settings	first compound 0.0008 µg/mL	first compound 0.0015 µg/mL	first compound 0.003 µg/mL	first compound 0.006 µg/mL
partner 20 µg/mL	≥ 1	–	–	0.442
partner 40 µg/mL	≥ 1	–	–	0.448
partner 68.57 µg/mL	≥ 1	0.934	0.894	–
partner 80 µg/mL	≥ 1	–	–	0.212

Settings	Bliss interaction score
B. subtilis 168	0.0397
S. aureus DSM 20231	-0.117
S. aureus Newman	0.0589
S. pneumoniae D39V [2]	0.0558

CN(C)C(=O)C(CCN1CCC(O)(c2ccc(Cl)cc2)CC1)(c1ccccc1)c1ccccc1 [Loperamide] + Cn1nnc(-c2ccc(-c3ccc(N4C[C@H](CO)OC4=O)cc3F)cn2)n1 [Tedizolid]
fitness, S. pneumoniae D39V [1]
Settings	first compound 17.14 µg/mL	first compound 20 µg/mL	first compound 34.28 µg/mL	first compound 40 µg/mL	first compound 80 µg/mL
partner 0.03125 µg/mL	–	0.997	–	≥ 1	≥ 1
partner 0.0625 µg/mL	–	≥ 1	–	≥ 1	≥ 1
partner 0.125 µg/mL	0.933	0.908	0.961	0.94	0.976
partner 0.5 µg/mL	0.532	–	0.529	–	–

S. pneumoniae D39V [1], first compound 68.57 µg/mL, one replicate
Settings	fitness
partner 0.125 µg/mL	0.979
partner 0.25 µg/mL	0.963
partner 0.5 µg/mL	0.468

Settings	Bliss interaction score
B. subtilis 168	0.06
S. aureus DSM 20231	0.198
S. aureus Newman	0.102
S. pneumoniae D39V [2]	0.243

CC1(C)S[C@@H]2[C@H](NC(=O)[C@H](N)c3ccc(O)cc3)C(=O)N2[C@H]1C(=O)O [Amoxicillin] + O=C1CN(/N=C/c2ccc([N+](=O)[O-])o2)C(=O)N1 [Nitrofurantoin]
fitness, S. pneumoniae D39V [1]
Settings	partner 1.285 µg/mL	partner 2 µg/mL	partner 2.57 µg/mL	partner 4 µg/mL	partner 8 µg/mL
first compound 0.0008 µg/mL	≥ 1	–	0.957	–	–
first compound 0.0015 µg/mL	0.92	0.906	0.962	0.897	0.903
first compound 0.003 µg/mL	0.909	0.859	0.922	0.868	0.875

fitness, S. pneumoniae D39V [1], one replicate
Settings	first compound 0.0008 µg/mL	first compound 0.0015 µg/mL	first compound 0.003 µg/mL	first compound 0.006 µg/mL
partner 2 µg/mL	0.93	–	–	0.43
partner 4 µg/mL	0.979	–	–	0.433
partner 5.14 µg/mL	0.928	0.921	0.857	–
partner 8 µg/mL	0.944	–	–	0.514

Settings	Bliss interaction score
B. subtilis 168	-0.206
S. aureus DSM 20231	-0.0521
S. aureus Newman	0.0375
S. pneumoniae D39V [2]	0.11

CCCCCCCCCC(=O)N[C@@H](Cc1c[nH]c2ccccc12)C(=O)N[C@H](CC(N)=O)C(=O)N[C@@H](CC(=O)O)C(=O)N[C@@H]1C(=O)NCC(=O)N[C@@H](CCCN)C(=O)N[C@@H](CC(=O)O)C(=O)N[C@H](C)C(=O)N[C@@H](CC(=O)O)C(=O)NCC(=O)N[C@H](CO)C(=O)N[C@@H]([C@H](C)CC(=O)O)C(=O)N[C@@H](CC(=O)c2ccccc2N)C(=O)O[C@@H]1C [Daptomycin] + Clc1ccc(COC(Cn2ccnc2)c2ccc(Cl)cc2Cl)c(Cl)c1 [Miconazole]
fitness, S. pneumoniae D39V [1]
Settings	partner 1.073 µg/mL	partner 1.25 µg/mL	partner 2.145 µg/mL	partner 2.5 µg/mL	partner 4.29 µg/mL	partner 5 µg/mL
first compound 1 µg/mL	0.962	0.922	0.967	0.913	0.841	0.898
first compound 2 µg/mL	0.984	0.888	0.981	0.896	0.881	0.86
first compound 4 µg/mL	≥ 1	0.847	≥ 1	0.813	0.882	0.836

Settings	Bliss interaction score
B. subtilis 168	0.0988
S. aureus DSM 20231	-0.0305
S. aureus Newman	-0.0424
S. pneumoniae D39V [2]	0.0797
